Measured values from patent US8546421B1, “Oncogenic-RAS-signal dependent lethal compounds” (The Trustees of Columbia University in the City of New York, priority 2007, dated 2013).
Values after ≈ are worked out from the molar mass of the structure shown. “Also recorded” adds a separate entry of the source. Read-outs that look alike come from different tables or passages of the source.

Columns and labels:
HOP-92 = test: NCI60 anti-cancer screening; settings: for GI 100% / GI50: HOP-92; for GI 100%: Non-small cell lung carcinoma; for GI50 / CC50: Homo sapiens; for CC50: HOP-92, read-out: LC 50%
BT-549 = test: NCI60 anti-cancer screening; settings: for GI 100% / GI50: BT-549; for GI 100%: Breast Cancer; for GI50 / CC50: Homo sapiens; for CC50: BT-549, read-out: LC 50%
NCI/ADR-RES = test: NCI60 anti-cancer screening; settings: for GI 100%: Breast Cancer; for GI50 / CC50: Homo sapiens; for CC50: read-out: LC 50%
[1] = test system: BJ-TERT/LT/ST/RAS^V12 cells; test: Counter screening with iron chelators; assay type: cell-based, human; settings: DFOM and three additional iron-binding compounds; 24 hours
Protocol: Cells were treated with iron chelators by transferring 4 μL of 1 mM deferoxamine mesylate (Calbiochem, cat.#252750), 500 μM compound 1a (Chembridge, cat.#5175092), 1 mM compound 2 (Ryan Scientific, cat.#LT01784723), or 100 μM compound 311 (Chembridge, cat.#5135701) in growth media to the assay plate. Then, 4 μL was transferred from the ‘10× lethal plate’ (described in ‘counter screening with biologically active compounds’) to the assay plate in order to induce cell death. Assay plates were incubated for 24 hours and alamar blue was added to the plates at a final concentration of 10%.

K-562 = test: NCI60 anti-cancer screening
HT29 = test: NCI60 anti-cancer screening; settings: for GI 100%: HT29, Colon Cancer; for GI50 / CC50: Homo sapiens; for GI50: HT-29; for CC50: HT-29, read-out: LC 50%
CCRF-CEM = test: NCI60 anti-cancer screening; settings: for GI50 / CC50: Homo sapiens; for CC50: read-out: LC 50%; for GI 100%: Leukemia
HL-60(TB) = settings: Leukemia
SNB-75 = test: NCI60 anti-cancer screening; settings: for GI50 / CC50: Homo sapiens; for GI50 / GI 100%: SNB-75; for CC50: SNB-75, read-out: LC 50%; for GI 100%: CNS Cancer
[2] = test system: BJ-TERT/LT/ST/RAS^V12 cells; test: Alamar blue growth inhibition in dilution series; assay type: cell-based, human
MCF-7 = test: NCI60 anti-cancer screening
OVCAR-8 = test: NCI60 anti-cancer screening
OVCAR-3 = test: cells; settings: Homo sapiens
SF-268 = test: NCI60 anti-cancer screening
UACC-257 = test: NCI60 anti-cancer screening
SK-MEL-2 = test: NCI60 anti-cancer screening
COLO 205 = test: NCI60 anti-cancer screening
HCT-116 = test: NCI60 anti-cancer screening
MALME-3M = test: NCI60 anti-cancer screening
SF-539 = test: NCI60 anti-cancer screening
RXF393 = test: NCI60 anti-cancer screening
SK-MEL-5 = test: NCI60 anti-cancer screening
UACC-62 = test: NCI60 anti-cancer screening
MDA-MB-231/ATCC = test: NCI60 anti-cancer screening
Calu-1 = test: Alamar Blue assay, additional cell lines; assay type: cell-based, human
Text: (§1) The results of this additional testing are summarized in Tables 7-10 (no additional cell lines were identified as sensitive for Compound 3). […] The tumor type, cell line, maximum percentage inhibition, the concentration of compound required to inhibit cell growth by 50%, and RAS mutation (if any) are also summarized.

PaCa-2 = test: Alamar Blue assay, additional cell lines; assay type: cell-based, human; settings: Pancreatic Cancer
Text: as §1

LOX IMVI = test: NCI60 anti-cancer screening

COCCOC(=O)C1=C(C)NC2=C(C(=O)CC(c3ccc(Cl)cc3)C2)C1c1ccccc1F (stereo not drawn) [Compound 3]
GI 100% (HOP-92): >10 µM
GI50 (HOP-92): 6.18 µM
CC50 (HOP-92): > 10 µM
GI 100% (BT-549): >10 µM
GI50 (BT-549): 4.28 µM
CC50 (BT-549): > 10 µM
GI 100% (NCI/ADR-RES): >10 µM
GI50 (NCI/ADR-RES): 8.93 µM
CC50 (NCI/ADR-RES): > 10 µM
effect of iron chelators on compound activity / induced cell death [1]: significantly inhibited
GI50 (K-562; Homo sapiens, K562): 9.16 µM
CC50 (K-562; Homo sapiens, K562, read-out: LC 50%): > 10 µM
GI 100% (K-562; K-562, Leukemia): >10 µM
GI 100% (HT29): >10 µM
GI50 (HT29): 9.82 µM
CC50 (HT29): > 10 µM
GI50 (CCRF-CEM): 7.95 µM
CC50 (CCRF-CEM): > 10 µM
GI 100% (CCRF-CEM): >10 µM
GI 100% (HL-60(TB)): >10 µM
GI50 (SNB-75): 9.61 µM
CC50 (SNB-75): > 10 µM
GI 100% (SNB-75): >10 µM
IC90 ([2]; Homo sapiens, alamar blue): 10 µg/mL (≈ 21.3 µM)

COC(=O)c1ccc(C2c3[nH]c4ccccc4c3CC(C(=O)OC)N2C(=O)CCl)cc1 (stereo not drawn) [Compound 27]
GI 100% (HOP-92): 1.07 µM
GI50 (HOP-92): 0.0991 µM
CC50 (HOP-92): 5.85 µM
GI50 (MCF-7; Homo sapiens, MCF7): 0.782 µM
CC50 (MCF-7; Homo sapiens, MCF7, read-out: LC 50%): > 10 µM
GI 100% (MCF-7; MCF-7, Breast Cancer): 3.98 µM
GI50 (OVCAR-8; Homo sapiens, OVCAR-8): 2.32 µM
CC50 (OVCAR-8; Homo sapiens, OVCAR-8, read-out: LC 50%): > 10 µM
GI 100% (OVCAR-8; OVCAR-8, Ovarian Cancer): >10 µM
GI50 (OVCAR-3; OVCAR-3): 0.353 µM
CC50 (OVCAR-3; OVCAR-3, read-out: LC 50%): 6.59 µM
GI 100% (BT-549): 0.316 µM
GI50 (BT-549): 0.131 µM
CC50 (BT-549): 0.765 µM
GI50 (SF-268; Homo sapiens, SF-268): 0.0692 µM
CC50 (SF-268; Homo sapiens, SF-268, read-out: LC 50%): 0.577 µM
GI 100% (SF-268; SF-268, CNS Cancer): 0.218 µM
GI 100% (NCI/ADR-RES): >10 µM
GI50 (NCI/ADR-RES): 2.56 µM
CC50 (NCI/ADR-RES): > 10 µM
GI50 (UACC-257; Homo sapiens, UACC-257): 1.37 µM
CC50 (UACC-257; Homo sapiens, UACC-257, read-out: LC 50%): > 10 µM
GI 100% (UACC-257; UACC-257, Melanoma): 7.46 µM
GI50 (SK-MEL-2; Homo sapiens, SK-MEL-2): 1.74 µM
CC50 (SK-MEL-2; Homo sapiens, SK-MEL-2, read-out: LC 50%): 9.82 µM
GI 100% (SK-MEL-2; SK-MEL-2, Melanoma): 4.13 µM
GI 100% (COLO 205; COLO 205, Colon Cancer): 3.44 µM
GI50 (COLO 205; Homo sapiens, COLO 205): 1.67 µM
CC50 (COLO 205; Homo sapiens, COLO 205, read-out: LC 50%): 7.07 µM
GI 100% (HCT-116; HCT-116, Colon Cancer): 1.48 µM
GI50 (HCT-116; Homo sapiens, HCT-116): 0.364 µM
CC50 (HCT-116; Homo sapiens, HCT-116, read-out: LC 50%): 3.84 µM
effect of iron chelators on compound activity / induced cell death [1]: suppressed by all of these iron chelators moderately; also recorded: significantly inhibited
GI50 (MALME-3M; Homo sapiens, Malme-3M): 0.406 µM
CC50 (MALME-3M; Homo sapiens, Malme-3M, read-out: LC 50%): 4.6 µM
GI 100% (MALME-3M; MALME-3M, Melanoma): 1.53 µM
GI50 (SF-539; Homo sapiens, SF-539): 0.118 µM
CC50 (SF-539; Homo sapiens, SF-539, read-out: LC 50%): 0.492 µM
GI 100% (SF-539; SF-539, CNS Cancer): 0.241 µM
GI 100% (HT29): 1.46 µM
GI50 (HT29): 0.415 µM
CC50 (HT29): 4.06 µM
GI50 (CCRF-CEM): 0.0195 µM
CC50 (CCRF-CEM): 0.0953 µM
GI 100% (CCRF-CEM): 0.0431 µM
GI 100% (HL-60(TB)): 0.537 µM
GI50 (SNB-75): 0.745 µM
CC50 (SNB-75): > 10 µM
GI 100% (SNB-75): 3.06 µM
GI50 (RXF393; Homo sapiens, RXF 393): 1.3 µM
CC50 (RXF393; Homo sapiens, RXF 393, read-out: LC 50%): 6.93 µM
GI 100% (RXF393; RXF393, Renal Cancer): 3 µM
GI50 (SK-MEL-5; Homo sapiens, SK-MEL-5): 1.38 µM
CC50 (SK-MEL-5; Homo sapiens, SK-MEL-5, read-out: LC 50%): 5.16 µM
GI 100% (SK-MEL-5; SK-MEL-5, Melanoma): 2.67 µM
GI50 (UACC-62; Homo sapiens, UACC-62): 1.21 µM
CC50 (UACC-62; Homo sapiens, UACC-62, read-out: LC 50%): 5.04 µM
GI 100% (UACC-62; UACC-62, Melanoma): 2.47 µM
GI50 (MDA-MB-231/ATCC; Homo sapiens, MDA-MB-231): 1.2 µM
CC50 (MDA-MB-231/ATCC; Homo sapiens, MDA-MB-231, read-out: LC 50%): 9.18 µM
GI 100% (MDA-MB-231/ATCC; MDA-MB-231/ATCC, Breast Cancer): 3.32 µM
concentration at which growth was inhibited (as low as) [2]: ≥ 0.01 µg/mL
concentration at which growth was inhibited (as low as) ([2]; 48 hours): ≥ 0.01 µg/mL
Maximum Inhibition % (Calu-1; Calu-1, Non-small cell lung carcinoma, Alamar Blue): 100%
IC90 (in words) (Calu-1; Calu-1 cells, alamar blue): single-digit nanomolar range
GI50 (Calu-1; Homo sapiens, Calu-1, Non-small cell lung carcinoma, Alamar Blue): 0.001 µM
IC50 (Calu-1; Homo sapiens, Calu-1 cells, treated for 24 hour, alamar blue): 0.02 µg/mL (≈ 0.0454 µM)
GI50 (PaCa-2; Homo sapiens): 0.125 µM
Maximum Inhibition % (PaCa-2): 100%
GI50 (LOX IMVI; Homo sapiens): 0.182 µM
CC50 (LOX IMVI; Homo sapiens, read-out: LC 50%): 0.826 µM
GI 100% (LOX IMVI; Melanoma): 0.387 µM
